Among the data in PubChem BioAssay (NCI) are TGI and GI50 values, retold here.

Some test systems named below: CAKI-1 renal; KM12 colon; LOX IMVI melanoma; NCI-H23 lung; OVCAR-8 ovarian; RPMI-8226 leukemia; RXF 393 renal; SN12C renal; SNB-19 CNS; SW-620 colon.
Holding throughout (test): NCI anticancer screen, dose series, 48 h

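Exposure lasted 48 hours, with cells grown in 96-well plates and compounds tested at five concentrations. Abbreviation: GI50, concentration required for 50% inhibition of growth. TGI: total growth inhibition.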

Turning to `CCCNCCCC(NC(C)=O)C(=O)NCc1ccccc1` (stereo not drawn), the TGI in the experiment with CAKI-1 renal, with KM12 colon, in the experiment on LOX IMVI melanoma, in the experiment on NCI-H23 lung, with OVCAR-8 ovarian and in the experiment with RPMI-8226 leukemia was more than 100 µM each time. Moreover, the TGI in the experiment on RXF 393 renal, with SN12C renal, in the experiment with SNB-19 CNS and in the experiment on SW-620 colon was more than 100 µM throughout.
In the case of `CCOC(=O)C1(Br)C(c2ccccc2)NC(=O)NC1(C)Br` (stereo not drawn), the TGI in the experiment on CAKI-1 renal was more than 62.4 µM; in the experiment on KM12 colon it was more than 100 µM; in the experiment on LOX IMVI melanoma it was more than 58.4 µM; with NCI-H23 lung, more than 100 µM; in the experiment with OVCAR-8 ovarian, more than 100 µM; in the experiment with RPMI-8226 leukemia, more than 88.9 µM. Further, the values for the TGI in the experiment on RXF 393 renal, in the experiment on SN12C renal and in the experiment with SNB-19 CNS were more than 100 µM, more than 100 µM and more than 66 µM, respectively.
`COc1ccccc1/C=C1\CCC(CCN(C)C)(C2=CCCC2)C1=O` (stereo not drawn): the TGI was 57.2 µM with CAKI-1 renal; 33 µM in the experiment on KM12 colon; 31.3 µM in the experiment on LOX IMVI melanoma; more than 100 µM with NCI-H23 lung; 34.7 µM with OVCAR-8 ovarian; 41.3 µM with RPMI-8226 leukemia. For the same molecule, the TGI came out at 27.3 µM in the experiment on RXF 393 renal, 50.3 µM in the experiment on SN12C renal, 31.1 µM in the experiment on SNB-19 CNS and 32.1 µM in the experiment on SW-620 colon.
Consider `C[C@H](NC(=O)[C@@H]1CSSC[C@@H](NC(=O)c2nc3ccccc3cc2O)C(=O)NCC(=O)N1C)c1ccccc1`, for which the GI50 in the experiment with CAKI-1 renal is 7.24 µM; in the experiment with KM12 colon, 0.629 µM; with LOX IMVI melanoma, 0.649 µM; with NCI-H23 lung, 5.14 µM; with OVCAR-8 ovarian, 5.16 µM; in the experiment on RPMI-8226 leukemia it was 5.67 µM. Besides, the GI50 in the experiment on RXF 393 renal was 1.31 µM; in the experiment with SN12C renal it was 5.62 µM; in the experiment with SNB-19 CNS, 7.24 µM; with SW-620 colon it was 1.85 µM. The TGI with CAKI-1 renal turned out to be 18.5 µM; in the experiment with KM12 colon, 8.56 µM; in the experiment on LOX IMVI melanoma it was 1.52 µM; in the experiment on NCI-H23 lung it was 12.6 µM; in the experiment with OVCAR-8 ovarian, 17.7 µM; in the experiment with RPMI-8226 leukemia, 21.5 µM. The TGI in the experiment on RXF 393 renal was found to be 3.06 µM; in the experiment with SN12C renal, 14.1 µM; in the experiment on SNB-19 CNS it was 19.4 µM; in the experiment on SW-620 colon it was 6.26 µM.
On to `C=CC1[C@H]2COC(C)(C)O[C@@H]2CC(=O)C1(C)C` (stereo partly drawn), for which the TGI with CAKI-1 renal, in the experiment on KM12 colon, in the experiment on LOX IMVI melanoma, in the experiment on NCI-H23 lung, in the experiment with OVCAR-8 ovarian and in the experiment with RXF 393 renal was more than 100 µM in each case. The TGI with SN12C renal, in the experiment on SNB-19 CNS and in the experiment on SW-620 colon was more than 100 µM in each case.
Turning to `CCOC(=O)/C(O)=C/c1cc(OC)cc(=O)o1`, the TGI in the experiment on CAKI-1 renal, in the experiment with KM12 colon, with LOX IMVI melanoma, in the experiment with NCI-H23 lung, in the experiment on OVCAR-8 ovarian and in the experiment on RPMI-8226 leukemia was more than 100 µM in each case. Further, the TGI with RXF 393 renal, with SN12C renal, with SNB-19 CNS and in the experiment on SW-620 colon was more than 100 µM each time.
Regarding `O=Cc1ccccc1OCCOc1cc(OCCOc2ccccc2C=O)c(OCCOc2ccccc2C=O)cc1OCCOc1ccccc1C=O`, the TGI in the experiment with CAKI-1 renal, with KM12 colon, in the experiment with LOX IMVI melanoma, in the experiment with NCI-H23 lung, in the experiment on OVCAR-8 ovarian and in the experiment on RPMI-8226 leukemia was more than 100 µM throughout. For the same molecule, the TGI with RXF 393 renal was more than 100 µM; in the experiment with SN12C renal, more than 100 µM; in the experiment on SNB-19 CNS, more than 82.9 µM; in the experiment on SW-620 colon, more than 100 µM.
On to `COc1ccc(N2Cc3cnc(Nc4ccccc4)nc3N([C@@H]3CC[C@@H](O)C3)C2=O)cc1`, for which the GI50 was 1.36 µM in the experiment on CAKI-1 renal; 3.54 µM in the experiment on KM12 colon; 1.14 µM with LOX IMVI melanoma; 8.17 µM in the experiment on NCI-H23 lung; 4.86 µM in the experiment on OVCAR-8 ovarian; 5.72 µM with RPMI-8226 leukemia. Also, the GI50 with RXF 393 renal was 0.399 µM; in the experiment on SN12C renal it was 1.31 µM; in the experiment with SNB-19 CNS, 11.9 µM; in the experiment on SW-620 colon it was 3.81 µM. Further, the TGI in the experiment with CAKI-1 renal is more than 9.74 µM; with KM12 colon it was more than 25 µM; in the experiment on LOX IMVI melanoma, 5.17 µM; in the experiment with NCI-H23 lung, more than 25 µM; in the experiment on OVCAR-8 ovarian it was more than 25 µM; in the experiment with RPMI-8226 leukemia, more than 25 µM. For the same molecule, the TGI in the experiment on RXF 393 renal was 3.18 µM; with SN12C renal, more than 25 µM; in the experiment on SNB-19 CNS it was more than 25 µM; with SW-620 colon, more than 18.2 µM.
Take `O=C1c2ccc([N+](=O)[O-])cc2-c2c1c1ccccc1c(=O)n2CCCNCCCNCCCn1c2c(c3ccc([N+](=O)[O-])cc3c1=O)C(=O)c1ccccc1-2`: the GI50 with CAKI-1 renal is 3.33 µM; with KM12 colon, 1.53 µM; with LOX IMVI melanoma, 2.7 µM; in the experiment with NCI-H23 lung, 1.2 µM; with OVCAR-8 ovarian, 0.31 µM; in the experiment on RPMI-8226 leukemia it was 0.258 µM. For the same molecule, the GI50 in the experiment on RXF 393 renal is 5.51 µM; in the experiment on SN12C renal it was 0.355 µM; with SNB-19 CNS, 0.985 µM; in the experiment with SW-620 colon, 0.81 µM. Besides, the TGI is 20.8 µM in the experiment with CAKI-1 renal; 4.31 µM in the experiment on KM12 colon; 16 µM in the experiment on LOX IMVI melanoma; 3.4 µM in the experiment on NCI-H23 lung; 2.32 µM in the experiment with OVCAR-8 ovarian; 0.82 µM with RPMI-8226 leukemia. Also, the TGI amounted to 41 µM in the experiment on RXF 393 renal, 2.91 µM in the experiment on SN12C renal, 6.54 µM in the experiment on SNB-19 CNS and 3.07 µM in the experiment on SW-620 colon.
Turning to `CN1CCN(c2ccc(NC(=O)c3nc4ccc5[nH]ncc5c4c4c3CCCC4)cc2C(F)(F)F)CC1`, the GI50 in the experiment with CAKI-1 renal is 1.52 µM; in the experiment on KM12 colon it was 1.47 µM; with LOX IMVI melanoma, 0.836 µM; in the experiment with NCI-H23 lung, 1.5 µM; in the experiment on OVCAR-8 ovarian, 0.921 µM; in the experiment on RPMI-8226 leukemia it was 0.966 µM. Moreover, the GI50 in the experiment with RXF 393 renal is 0.798 µM; with SN12C renal, 0.895 µM; in the experiment with SNB-19 CNS, 1.39 µM; in the experiment on SW-620 colon, 0.947 µM. Further, the TGI with CAKI-1 renal amounted to 7.72 µM; in the experiment with KM12 colon it was 5.27 µM; in the experiment on LOX IMVI melanoma it was 1.55 µM; with NCI-H23 lung it was 6.71 µM; with OVCAR-8 ovarian, 1.91 µM; with RPMI-8226 leukemia, 2.3 µM. The TGI in the experiment on RXF 393 renal was determined as 1.55 µM; in the experiment with SN12C renal, 1.65 µM; in the experiment with SNB-19 CNS, 4.58 µM; in the experiment with SW-620 colon, 2.2 µM.
